# Results as given in patent US20240228555A9, “ANTIMICROBIAL PEPTIDOMIMETICS” (Basilea Pharmaceutica International AG, Allschwil, priority 2020, published 2024).
# Where a SMILES comes first, the peptide text is derived from it.
# Columns and labels:
# [1] = system: Escherichia coli ATCC 25922; conditions: ATCC 25922
# Method in brief: (§1)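 Standardized inocula (0.5 McFarland in saline, then diluted in MHII broth to approximately 5×10^5 CFU/mL) were exposed to two-fold dilution series of each peptide in the presence of polysorbate 80 (0.002% final).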
# [2] = system: Escherichia coli MCR-1 Af 45; conditions: Mueller-Hinton broth II, no visible growth after 18-20 hours at 35° C.
# Method in brief: as §1
# [3] = system: Klebsiella pneumoniae SSI3010; conditions: SSI3010
# Method in brief: as §1
# [4] = system: human red blood cells (hRBC); assay type: cell-based; conditions: red cells of human, 1 h, 0.2 g/L
# Method in brief: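 Percent lysis was derived from supernatant absorbance at 540 nm relative to full lysis by 2.5% Triton X-100 (PBS defines 0%). Compounds, 200 μg/mL, were exposed for 1 h at 37° C to a 20% (v/v) suspension of washed human red cells.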
SMILES,Escherichia coli ATCC 25922 MIC [1] [µg/mL],Escherichia coli MCR-1 Af 45 MIC [2] [µg/mL],Klebsiella pneumoniae SSI3010 MIC [3] [µg/mL],Hemolysis at 0.2 g/L [4] [%]
"CC[C@H](C)[C@H](NC(=O)[C@@H](NC(=O)[C@@H]1C[C@@H](O)CN1C(=O)[C@@H](N)C(C)(C)C)[C@@H](C)CC)C(=O)N[C@@H](Cc1ccc(O)cc1)C(=O)N[C@@H]1C(=O)N[C@@H](CC(N)=O)C(=O)N[C@@H](CCCNC(=N)N)C(=O)N[C@@H](CCN)C(=O)N[C@@H]([C@@H](C)O)C(=O)N[C@H](CCN)C(=O)N[C@@H](CCCCN)C(=O)N[C@H](C(=O)N[C@@H](CCN)C(=O)N[C@@H](CCCNC(=N)N)C(=O)N[C@@H](Cc2ccc(O)cc2)C(=O)O)CSSC1(C)C [Example 114, tBuGly-Hyp-Ile-Ile-Tyr-Pen-Asn-Arg-Dab-Thr-^DDab-Lys-Cys-Dab-Arg-Tyr] (HELM PEPTIDE1{[CC(C)(C)[C@H](N)C(=O)[*:2]].[Hyp].I.I.Y.[Pen].N.R.[Dab].T.[NCC[C@@H](N[*:1])C(=O)[*:2]].K.C.[Dab].R.Y}$PEPTIDE1,PEPTIDE1,6:R3-13:R3$$$V2.0)",0.125,0.125,0.5,<1
"CC[C@H](C)[C@H](NC(=O)[C@@H](NC(=O)[C@@H]1C[C@@H](N)CN1C(=O)[C@@H](N)C(C)C)[C@@H](C)CC)C(=O)N[C@@H](Cc1ccc(O)cc1)C(=O)N[C@@H]1C(=O)N[C@@H](CC(N)=O)C(=O)N[C@@H](CCCNC(=N)N)C(=O)N[C@@H](CCN)C(=O)N[C@@H]([C@@H](C)O)C(=O)N[C@H](CCN)C(=O)N[C@@H]([C@@H](C)CC)C(=O)N[C@H](C(=O)N[C@@H](CCN)C(=O)N[C@H](C(=O)N[C@@H](Cc2ccc(O)cc2)C(=O)O)[C@@H](C)O)CSSC1(C)C [Example 115, Val-Pro((4R)NH2)-Ile-Ile-Tyr-Pen-Asn-Arg-Dab-Thr-^DDab-Ile-Cys-Dab-Thr-Tyr] (HELM PEPTIDE1{V.[N[C@@H]1C[C@@H](C(=O)[*:2])N([*:1])C1].I.I.Y.[Pen].N.R.[Dab].T.[NCC[C@@H](N[*:1])C(=O)[*:2]].I.C.[Dab].T.Y}$PEPTIDE1,PEPTIDE1,6:R3-13:R3$$$V2.0)",0.5,0.125,0.5,<1
"CC[C@H](C)[C@H](NC(=O)[C@@H]1C[C@@H](N)CN1C(=O)[C@@H](N)C(C)C)C(=O)N[C@H](C(=O)N[C@@H](Cc1ccc(O)cc1)C(=O)N[C@@H]1C(=O)N[C@@H](CC(N)=O)C(=O)N[C@@H](CCCNC(=N)N)C(=O)N[C@@H](CCN)C(=O)N[C@@H]([C@@H](C)O)C(=O)N[C@H](CCN)C(=O)N[C@@H](CCCNC(N)=O)C(=O)N[C@H](C(=O)N[C@@H](CCN)C(=O)N[C@H](C(=O)N[C@@H](Cc2ccc(O)cc2)C(=O)O)[C@@H](C)O)CSSC1(C)C)[C@@H](C)O [Example 116, Val-Pro((4R)NH2)-Ile-Thr-Tyr-Pen-Asn-Arg-Dab-Thr-^DDab-Cit-Cys-Dab-Thr-Tyr] (HELM PEPTIDE1{V.[N[C@@H]1C[C@@H](C(=O)[*:2])N([*:1])C1].I.T.Y.[Pen].N.R.[Dab].T.[NCC[C@@H](N[*:1])C(=O)[*:2]].[Cit].C.[Dab].T.Y}$PEPTIDE1,PEPTIDE1,6:R3-13:R3$$$V2.0)",0.25,0.25,0.5,<1
"CC[C@H](C)[C@@H]1NC(=O)[C@@H](CCN)NC(=O)[C@H]([C@@H](C)O)NC(=O)[C@H](CCN)NC(=O)[C@H](CCCNC(=N)N)NC(=O)[C@H](CC(N)=O)NC(=O)[C@@H](NC(=O)[C@H](Cc2ccc(O)cc2)NC(=O)[C@@H](NC(=O)[C@@H](NC(=O)[C@@H]2C[C@@H](N)CN2C(=O)[C@@H](N)C(C)C)[C@@H](C)CC)[C@@H](C)O)C(C)(C)SSC[C@@H](C(=O)N[C@@H](CCN)C(=O)N[C@H](C(=O)N[C@@H](Cc2ccc(O)cc2)C(=O)O)[C@@H](C)O)NC1=O [Example 117, Val-Pro((4R)NH2)-Ile-Thr-Tyr-Pen-Asn-Arg-Dab-Thr-^DDab-Ile-Cys-Dab-Thr-Tyr] (HELM PEPTIDE1{V.[N[C@@H]1C[C@@H](C(=O)[*:2])N([*:1])C1].I.T.Y.[Pen].N.R.[Dab].T.[NCC[C@@H](N[*:1])C(=O)[*:2]].I.C.[Dab].T.Y}$PEPTIDE1,PEPTIDE1,6:R3-13:R3$$$V2.0)",0.125,0.125,0.25,<1
"CC[C@H](C)[C@H](NC(=O)[C@@H](NC(=O)[C@@H]1C[C@@H](O)CN1C(=O)[C@@H](N)C(C)C)[C@@H](C)CC)C(=O)N[C@@H](Cc1ccc(O)cc1)C(=O)N[C@@H]1C(=O)N[C@@H](CC(N)=O)C(=O)N[C@@H](CCCNC(=N)N)C(=O)N[C@@H](CCN)C(=O)N[C@@H](CO)C(=O)N[C@H](CCN)C(=O)N[C@@H]([C@@H](C)CC)C(=O)N[C@H](C(=O)N[C@@H](CCN)C(=O)N[C@@H](CCCNC(=N)N)C(=O)N[C@@H](Cc2ccc(O)cc2)C(=O)O)CSSC1(C)C [Example 118, Val-Hyp-Ile-Ile-Tyr-Pen-Asn-Arg-Dab-Ser-^DDab-Ile-Cys-Dab-Arg-Tyr] (HELM PEPTIDE1{V.[Hyp].I.I.Y.[Pen].N.R.[Dab].S.[NCC[C@@H](N[*:1])C(=O)[*:2]].I.C.[Dab].R.Y}$PEPTIDE1,PEPTIDE1,6:R3-13:R3$$$V2.0)",0.25,0.25,0.25,<1
"CC[C@H](C)[C@H](NC(=O)[C@@H]1C[C@@H](N)CN1C(=O)[C@@H](N)C(C)C)C(=O)N[C@H](C(=O)N[C@@H](Cc1ccc(O)cc1)C(=O)N[C@@H]1C(=O)N[C@@H](CC(N)=O)C(=O)N[C@@H](CCCNC(=N)N)C(=O)N[C@@H](CCN)C(=O)N[C@@H]([C@@H](C)O)C(=O)N[C@H](CCN)C(=O)N[C@@H](CCCCN)C(=O)N[C@H](C(=O)N[C@@H](CO)C(=O)N[C@H](C(=O)N[C@@H](Cc2ccc(O)cc2)C(=O)O)[C@@H](C)O)CSSC1(C)C)[C@@H](C)O [Example 119, Val-Pro((4R)NH2)-Ile-Thr-Tyr-Pen-Asn-Arg-Dab-Thr-^DDab-Lys-Cys-Ser-Thr-Tyr] (HELM PEPTIDE1{V.[N[C@@H]1C[C@@H](C(=O)[*:2])N([*:1])C1].I.T.Y.[Pen].N.R.[Dab].T.[NCC[C@@H](N[*:1])C(=O)[*:2]].K.C.S.T.Y}$PEPTIDE1,PEPTIDE1,6:R3-13:R3$$$V2.0)",0.25,0.25,0.25,<1
"CC[C@H](C)[C@H](NC(=O)[C@@H]1C[C@@H](N)CN1C(=O)[C@@H](N)C(C)C)C(=O)N[C@H](C(=O)N[C@@H](Cc1ccc(O)cc1)C(=O)N[C@@H]1C(=O)N[C@@H](CC(N)=O)C(=O)N[C@@H](CCCNC(=N)N)C(=O)N[C@@H](CCN)C(=O)N[C@@H]([C@@H](C)O)C(=O)N[C@H](CCN)C(=O)N[C@@H](CCCCN)C(=O)N[C@H](C(=O)N[C@@H](CCN)C(=O)N[C@H](C(=O)N[C@@H](Cc2ccc(O)cc2)C(=O)O)[C@@H](C)O)CSSC1(C)C)[C@@H](C)O [Example 120, Val-Pro((4R)NH2)-Ile-Thr-Tyr-Pen-Asn-Arg-Dab-Thr-^DDab-Lys-Cys-Dab-Thr-Tyr] (HELM PEPTIDE1{V.[N[C@@H]1C[C@@H](C(=O)[*:2])N([*:1])C1].I.T.Y.[Pen].N.R.[Dab].T.[NCC[C@@H](N[*:1])C(=O)[*:2]].K.C.[Dab].T.Y}$PEPTIDE1,PEPTIDE1,6:R3-13:R3$$$V2.0)",0.25,0.125,0.5,<1
"CC[C@H](C)[C@H](NC(=O)[C@@H](NC(=O)[C@@H]1C[C@@H](O)CN1C(=O)[C@@H](N)C(C)C)[C@@H](C)CC)C(=O)N[C@@H](Cc1ccc(O)cc1)C(=O)N[C@@H]1C(=O)N[C@@H](CC(N)=O)C(=O)N[C@@H](CCCNC(=N)N)C(=O)N[C@@H](CCCN)C(=O)N[C@@H]([C@@H](C)O)C(=O)N[C@H](CCN)C(=O)N[C@@H]([C@@H](C)CC)C(=O)N[C@H](C(=O)N[C@@H](CCN)C(=O)N[C@@H](CCCNC(=N)N)C(=O)N[C@@H](Cc2ccc(O)cc2)C(=O)O)CSSC1(C)C [Example 121, Val-Hyp-Ile-Ile-Tyr-Pen-Asn-Arg-Orn-Thr-^DDab-Ile-Cys-Dab-Arg-Tyr] (HELM PEPTIDE1{V.[Hyp].I.I.Y.[Pen].N.R.[Orn].T.[NCC[C@@H](N[*:1])C(=O)[*:2]].I.C.[Dab].R.Y}$PEPTIDE1,PEPTIDE1,6:R3-13:R3$$$V2.0)",0.25,0.25,0.5,<1
"CC[C@H](C)[C@H](NC(=O)[C@@H]1C[C@@H](O)CN1C(=O)[C@@H](N)C(C)C)C(=O)N[C@@H](CCCN)C(=O)N[C@@H](Cc1ccc(O)cc1)C(=O)N[C@@H]1C(=O)N[C@@H](CC(N)=O)C(=O)N[C@@H](CCCNC(=N)N)C(=O)N[C@@H](CCN)C(=O)N[C@@H]([C@@H](C)O)C(=O)N[C@H](CCN)C(=O)N[C@@H](CCCCN)C(=O)N[C@H](C(=O)N[C@@H](CCN)C(=O)N[C@H](C(=O)N[C@@H](Cc2ccc(O)cc2)C(=O)O)[C@@H](C)O)CSSC1(C)C [Example 122, Val-Hyp-Ile-Orn-Tyr-Pen-Asn-Arg-Dab-Thr-^DDab-Lys-Cys-Dab-Thr-Tyr] (HELM PEPTIDE1{V.[Hyp].I.[Orn].Y.[Pen].N.R.[Dab].T.[NCC[C@@H](N[*:1])C(=O)[*:2]].K.C.[Dab].T.Y}$PEPTIDE1,PEPTIDE1,6:R3-13:R3$$$V2.0)",0.25,0.125,0.5,<1
